≈ marks a conversion by molar mass, not a printed value.
Key:
[1] = tested on: C. difficile strain 4118 (CD4118, ATCC BAA-1870, ribotype 027); assay: MIC by broth microdilution; type: cell-based, Clostridium difficile; conditions: for MIC: Clostridioides difficile, ATCCBAA1870, BHIS broth, anaerobic, 20–24 h, n = 2, read-out: MIC C. difficile 4118; for in vitro activity against CD4118 (in words): growth inhibition, MIC assay
[2] = tested on: C. difficile strain 630 (CD630, ATCC BAA-1382-FZ, ribotype 012); assay: MIC by broth microdilution; type: cell-based, Clostridium difficile; conditions: for MIC: Clostridioides difficile, ATCCBAA1382, BHIS broth, anaerobic, 20–24 h, n = 2; for in vitro activity against CD630 (in words): growth inhibition, MIC assay
B. subtilis ATCC 6051 = assay: MIC by broth microdilution; type: cell-based; conditions: Bacillus subtilis, ATCC6051; B. subtilis ATCC 6051; CAMHB, aerobic; duplicate; read-out: MIC
A. baumannii M2 = assay: MIC by broth microdilution; type: cell-based; conditions: Acinetobacter baumannii; A. baumannii M2; CAMHB, aerobic; duplicate; read-out: MIC
P. distasonis ATCC 8503 = assay: MIC by broth microdilution; type: cell-based; conditions: Parabacteroides distasonis, ATCC8503; P. distasonis ATCC 8503; supplemented Brucella broth, anaerobic; duplicate; read-out: MIC
C. sporogenes ATCC 15579 = assay: MIC by broth microdilution; type: cell-based; conditions: Clostridium sporogenes, ATCC15579, BHIS, anaerobic, duplicate
[3] = tested on: B. longum subsp. longum Strain 44B; assay: MIC by broth microdilution; type: cell-based; conditions: Bifidobacterium longum; B. longum subsp. longum 44B; LSM broth, anaerobic; duplicate; read-out: MIC
[4] = tested on: B. fragilis Strain CL05T00C42; assay: MIC by broth microdilution; type: cell-based; conditions: Bacteroides fragilis; B. fragilis CL05T00C42; supplemented Brucella broth, anaerobic; duplicate; read-out: MIC
L. plantarum ATCC 8014 = assay: MIC by broth microdilution; type: cell-based; conditions: Lactiplantibacillus plantarum, ATCC8014; L. plantarum ATCC 8014; CAMHB with 5% laked horse blood, ~48 h; duplicate; read-out: MIC
[5] = tested on: B. breve Strain EX336960VC19; assay: MIC by broth microdilution; type: cell-based; conditions: Bifidobacterium breve; B. breve EX336960VC19; LSM broth, anaerobic; duplicate; read-out: MIC
[6] = tested on: B. thetaiotaomicron ATCC 29148; assay: microbe, parasite or virus in culture; type: cell-based; conditions: Bacteroides thetaiotaomicron, ATCC29148; B. thetaiotaomicron ATCC 29148; supplemented Brucella broth, anaerobic; duplicate; read-out: MIC
[7] = tested on: L. reuteri Strain CF48-3A; assay: MIC by broth microdilution; type: cell-based, Lactobacillus reuteri; conditions: Limosilactobacillus reuteri; L. reuteri CF48-3A; CAMHB with 5% laked horse blood, ~48 h; duplicate; read-out: MIC
[8] = tested on: L. johnsonii Strain 135-1-CHN; assay: MIC by broth microdilution; type: cell-based; conditions: Lactobacillus johnsonii, STRAIN1351CHN; L. johnsonii 135-1-CHN; CAMHB with 5% laked horse blood, ~48 h; duplicate; read-out: MIC
S. aureus RN4220 = assay: MIC by broth microdilution; type: cell-based; conditions: Staphylococcus aureus, CAMHB, aerobic, duplicate
S. epidermidis 1457 = assay: MIC by broth microdilution; type: cell-based; conditions: Staphylococcus epidermidis; S. epidermidis 1457; CAMHB, aerobic; duplicate; read-out: MIC
P. nigrescens ATCC 33563 = assay: MIC by broth microdilution; type: cell-based; conditions: Prevotella nigrescens, ATCC33563; P. nigrescens ATCC 33563; supplemented Brucella broth, anaerobic; duplicate; read-out: MIC
[9] = tested on: C. clostridioforme ATCC 25537; assay: MIC by broth microdilution; type: cell-based, Clostridium clostridioforme; conditions: Clostridium, ATCC25537; C. clostridioforme ATCC 25537; BHIS, anaerobic; duplicate; read-out: MIC
P. aeruginosa PAO1 = assay: MIC by broth microdilution; type: cell-based; conditions: Pseudomonas aeruginosa; P. aeruginosa PAO1; CAMHB, aerobic; duplicate; read-out: MIC

MIC [1] [µg/mL]	MIC [2] [µg/mL]	Compound	in vitro activity against CD4118 (in words) [1]	in vitro activity against CD630 (in words) [2]	also measured
8 (≈ 16 µM)	8 (≈ 16 µM)	O=C(Nc1ccccc1Cl)c1cc(I)cc(I)c1O [Compound 7c]			
1 (≈ 1.9 µM)	1 (≈ 1.9 µM)	O=C(NCCc1cccc(Cl)c1)c1cc(I)cc(I)c1O [Compound 7g]			
0.5 (≈ 0.948 µM)	0.25 (≈ 0.474 µM)	O=C(NCCc1ccc(Cl)cc1)c1cc(I)cc(I)c1O [Compound 7h]			
0.25 (≈ 0.423 µM)	0.13 (≈ 0.22 µM)	O=C(Nc1ccc(I)cc1)c1cc(I)cc(I)c1O [Compound 7d]			
2 (≈ 3.79 µM)	2 (≈ 3.79 µM)	O=C(NCCc1ccccc1Cl)c1cc(I)cc(I)c1O [Compound 7f]			
0.5 (≈ 0.904 µM)	0.25 (≈ 0.452 µM)	O=C(Nc1ccc2c(c1)Cc1ccccc1-2)c1cc(I)cc(I)c1O [Compound 7e, N-(9H-Fluoren-2-yl)-2-hydroxy-3,5-diiodobenzamide]			
> 32	> 32	O=C(Nc1ccc2ccccc2c1)c1cc(I)cc(I)c1 [Compound 6c]	inactive	inactive	
0.5 (≈ 0.89 µM)	0.25 (≈ 0.445 µM)	O=C(NCCc1ccc(Cl)cc1Cl)c1cc(I)cc(I)c1O [Compound 7i]			
> 32	> 32	COc1c(I)cc(I)cc1C(=O)Nc1ccc2ccccc2c1 [Compound 6b]	inactive	inactive	
1 (≈ 1.85 µM)	0.5 (≈ 0.924 µM)	O=C(Nc1ccc(-c2ccccc2)cc1)c1cc(I)cc(I)c1O [Compound 7a]			

Continued, compound first:

Compound	MIC [1] [µg/mL]	MIC [2] [µg/mL]	in vitro activity against CD4118 (in words) [1]	in vitro activity against CD630 (in words) [2]	also measured
COc1c(I)cc(I)cc1C(=O)Nc1ccc(Oc2ccccc2)cc1 [Compound 5b]	> 32	> 32	inactive	inactive	
O=C(Nc1ccc(Oc2ccc(F)cc2)cc1)c1cc(I)cc(I)c1O [Compound 5e]	0.13 (≈ 0.226 µM)	0.13 (≈ 0.226 µM)	exhibited in vitro activity	exhibited in vitro activity	
Cc1ccc(Oc2ccc(NC(=O)c3cc(I)cc(I)c3O)cc2)cc1 [Compound 5f]	0.25 (≈ 0.438 µM)	0.13 (≈ 0.228 µM)	exhibited in vitro activity	exhibited in vitro activity	
COc1c(I)cc(I)cc1C(=O)Nc1ccc(Oc2ccc(Cl)cc2)cc1 [Compound 5h]	> 32	> 32	inactive	inactive	
CN(C(=O)c1cc(I)cc(I)c1O)c1ccc(Oc2ccccc2)cc1 [Compound 5d]	> 32	> 32	inactive	inactive	
O=C(Nc1ccc(Oc2ccccc2)cc1)c1cc(I)cc(I)c1 [Compound 5c]	> 32	> 32	inactive	inactive	
O=C(Nc1ccc(Cl)cc1)c1cc(I)cc(I)c1O [Compound 7b]	0.5 (≈ 1 µM)	0.25 (≈ 0.501 µM)			MIC (B. subtilis ATCC 6051): 0.06 µg/mL (≈ 0.12 µM); MIC (A. baumannii M2): 32 µg/mL (≈ 64.1 µM); MIC (P. distasonis ATCC 8503): 8 µg/mL (≈ 16 µM); MIC (C. sporogenes ATCC 15579): 16 µg/mL (≈ 32 µM); MIC [3]: 8 µg/mL (≈ 16 µM); MIC [4]: 32 µg/mL (≈ 64.1 µM); MIC (L. plantarum ATCC 8014): 32 µg/mL (≈ 64.1 µM); MIC [5]: 8 µg/mL (≈ 16 µM); MIC [6]: > 32 µg/mL; MIC [7]: 32 µg/mL (≈ 64.1 µM); MIC [8]: 32 µg/mL (≈ 64.1 µM); MIC (S. aureus RN4220): 0.06 µg/mL (≈ 0.12 µM); MIC (S. epidermidis 1457): ≤ 0.03 µg/mL; MIC (P. nigrescens ATCC 33563): 4 µg/mL (≈ 8.01 µM); MIC [9]: 16 µg/mL (≈ 32 µM); MIC (P. aeruginosa PAO1): > 32 µg/mL
O=C(Nc1ccc2ccccc2c1)c1cc(I)cc(I)c1O [Compound 6a]	0.5 (≈ 0.971 µM)	0.5 (≈ 0.971 µM)	exhibited in vitro activity	exhibited in vitro activity	MIC (B. subtilis ATCC 6051): 0.06 µg/mL (≈ 0.116 µM); MIC (A. baumannii M2): > 32 µg/mL; MIC (P. distasonis ATCC 8503): 16 µg/mL (≈ 31.1 µM); MIC (C. sporogenes ATCC 15579): 8 µg/mL (≈ 15.5 µM); MIC [3]: 32 µg/mL (≈ 62.1 µM); MIC [4]: 32 µg/mL (≈ 62.1 µM); MIC (L. plantarum ATCC 8014): > 32 µg/mL; MIC [5]: 32 µg/mL (≈ 62.1 µM); MIC [6]: > 32 µg/mL; MIC [7]: 32 µg/mL (≈ 62.1 µM); MIC [8]: 32 µg/mL (≈ 62.1 µM); MIC (S. aureus RN4220): 0.25 µg/mL (≈ 0.485 µM); MIC (S. epidermidis 1457): 0.06 µg/mL (≈ 0.116 µM); MIC (P. nigrescens ATCC 33563): 8 µg/mL (≈ 15.5 µM); MIC [9]: 4 µg/mL (≈ 7.77 µM); MIC (P. aeruginosa PAO1): > 32 µg/mL
O=C(Nc1ccc(Oc2ccc(Cl)cc2)cc1)c1cc(I)cc(I)c1O [Compound 5g]	0.25 (≈ 0.423 µM)	0.13 (≈ 0.22 µM)	exhibited in vitro activity	exhibited in vitro activity	
O=C(Nc1ccc(Oc2ccccc2)cc1)c1cc(I)cc(I)c1O [Compound 5a]	1 (≈ 1.79 µM)	0.5 (≈ 0.897 µM)	exhibited in vitro activity	exhibited in vitro activity	

— PMC5025651, “Reprofiled anthelmintics abate hypervirulent stationary-phase Clostridium difficile” (Scientific Reports, 2016)
